{"source": "patent US12097174B2", "about": "“Methods and agents that enhance myogenic progenitor cell engraftment” (President and Fellows of Harvard College, priority 2018, dated 2024)", "key": {"ZeMPCs": {"tested_on": "ZeMPCs", "assay": "Calcium imaging in Fura-2, AM treated ZeMPCs (single-cell imaging)", "format": "cell-based, zebrafish", "details": "10 μM NFA, 5 μM LPA, 10 μM ionomycin; 10-20 seconds after loading", "experimental": "Fura-2, AM treated ZeMPCs were exposed to 10 μM NFA, 5 μM LPA, 10 μM lonomycin (as a positive control) and DMSO (as vehicle control) to visualize their effect on intracellular calcium ion concentration using single-cell imaging. […] Scale bar 50 μm.\nThe ZeMPCs and C2C12 cells were incubated with Fura-2, AM (Thermo Fisher Sci F1225), a cell permeant fluorescent calcium ion indicator, for 45 minutes at 28.5° C. and 37° C., respectively, followed by imaging with Celldiscoverer7 Microscope (Zeiss). 20 seconds after imaging initiation the treatment was added to the cells and continued for a total of 2-3 minutes."}, "[1]": {"tested_on": "sapje-like (sap^c/100) fish", "assay": "Swimming performance of sapje-like fish before and after transplantation of treated ZeMPCs", "format": "in vivo, zebrafish", "details": "cells treated before transplant; tested 7 days after transplant, flow about 5.5 L/min", "experimental": "Finally, to assess the functionality of myogenic precursors exposed to NFA and/or LPA prior to muscle engraftment, the swimming performance of sapje-like fish was evaluated before and after transplantation. […] Recipient sapje-like fish were irradiated and injected with healthy ZeMPCs, exposed prior to transplant to NFA, LPA or vehicle alone, on both flanks at 3 dorsal points on each side-in the tail, beneath the dorsal fin, and in the trunk-with 25 cells per injection. Immediately prior to transplant, and again 7 days after transplant, muscle function was tested in a modified Blazka-type swim chamber, in which a flow rate of approximately 5.5 L/min was introduced to test swimming performance (FIG. 16A). […] Because only the treated cells were transplanted, after removal of the compounds, it was concluded from these studies that the swimming performance of these transplanted sapje-like fish was improved as a result of better engraftment by NFA-treated or LPA-treated ZeMPCs. Juvenile zebrafish from a sapje-like transgenic line were fin-clipped and genotyped to identify heterozygotes. A flow-through modified Blazka-type swim chamber was creating using a horizontal acrylic tank with dimensions of 350 mm 1×47 mm w×90 mm d. […] The raw digital file was then analyzed for movement within the swim area. The distance from the flow source was quantified using MATLAB (MathWorks)."}}, "note": "Entries after “also recorded” stand apart in the source; their conditions may differ."}
{"molecule": "O=C(O)c1cccnc1Nc1cccc(C(F)(F)F)c1", "note": "[NFA, niflumic acid]", "values": [{"measurement": "intracellular calcium ion concentration", "setting": "ZeMPCs", "value": "increase"}, {"measurement": "swimming performance vs fish engrafted with vehicle-treated cells", "setting": "[1]", "value": "better swimming performance; also recorded: performed significantly better"}]}
{"molecule": "lysophosphatidic acid [LPA]", "values": [{"measurement": "intracellular calcium ion concentration", "setting": "ZeMPCs", "value": "increase"}, {"measurement": "swimming performance vs fish engrafted with vehicle-treated cells", "setting": "[1]", "value": "better swimming performance; also recorded: performed significantly better"}]}
